Results reported in patent publication US20210284621A1 (priority 2018, published 2021).

Tests used:
CB2 receptor = CB2 receptor (Homo sapiens, UniProt P34972); assay: CB2 competitive radioligand binding assay ([3H] WIN-55,212-2); design: expressed in transfected cells; host or cells: CHO-K1 cells; settings: for inhibition at 0.05 µM: 0.05 μM compound, 2.4 nM [3H] WIN-55,212-2, 90 min 37° C.
Protocol: (§1) J Med Chem. 41(26): 5177-5187 (1998); and Munro S., et al. Molecular characterization of a peripheral receptor for cannabinoids. Nature 365:61-65 (1993).
CB2 Radioligand Binding Assay: A compound of the invention (0.05 μM in 1% DMSO) was incubated with CHO-K1 cells expressing human recombinant CB2 receptor in buffer (20 mM HEPES, pH 7.0, 0.5% BSA) for 90 minutes at 37° C. in the presence of 2.4 nM [H^3] WIN-55,212-2 (CB2 radioligand). % Inhibition was determined as a function of radioligand binding to the […].

CB1 receptor = CB1 receptor (Homo sapiens, UniProt P21554); assay: CB1 competitive radioligand binding assay ([3H] SR141716A); design: expressed in transfected cells; host or cells: Chem-1 cells; settings: for inhibition at 0.5 µM: 0.5 μM compound, 2.0 nM [3H] SR141716A, 90 min 37° C.
Protocol: as §1
CB1 Radioligand Binding Assay: A compound of the invention (0.5 μM in 1% DMSO) was incubated with Chem-1 cells expressing human recombinant CB1 receptor in buffer (50 mM HEPES, pH 7.4, 5 mM MgCl2, 1 mM CaCl2, 0.2% BSA) for 90 minutes at 37° C. in the presence of 2.0 nM [H^3] SR141716A (CB1 radioligand). % Inhibition was determined as a function of radioligand binding to the CB1 receptor.

LPS-induced PBMCs = assay: Inflammatory cytokine release from LPS-induced PBMCs (Luminex); type: cell-based, human; settings: fold change from LPS-treated PBMCs, compounds 10 μM (DEX 1 μg/ml) 2 h, then LPS 0.1 μg/ml 24 h, negative = reduced
Protocol: Compounds of the invention were assayed for their effect on inflammatory cytokine release from lipopolysaccharides (LPS)-induced PBMCs, isolated from a human blood sample, the results of which are provided in Table 7 as fold change. Exemplary methods for quantifying secretion of inflammatory cytokines in PBMCs are known in the art, for example, as described in Hailer et al., Infection and Immunity. 68(2):752-759 (2000); and Merlini et al., Frontiers in Immunology. 7:614 (2016); each of which is incorporated herein by reference with respect to methods for evaluating cytokine release in PBMCs.
In brief, human blood samples from healthy volunteers were collected and PBMCs were isolated. PBMCs were cultured and each compound was assayed in triplicate at a final concentration of 10 μM for 2 hours. 1 μg/ml dexamethasone (DEX) served as a positive control. LPS was added at a final concentration of 0.1 μg/ml and further incubated for 24 hours. At the end of the incubation, the supernatants were collected and the levels of a panel of secreted cytokines were measured by a Human Magnetic Luminex® assay (R&D). The results in Table 7 are presented as a fold change from LPS-treated PBMCs. Reduced levels are expressed by negative values. OOR denotes values that are out of the standard curve range for the specific cytokine and thus, could not be accurately measured. Cytotoxicity was also determined. Compounds with cytotoxicity ≥50% was considered cytotoxic. Baseline cytotoxicity of untreated PBMCs was 17% and all compounds presented in Table 7 induced cytotoxicity below 25%.

[1] = OOR = out of standard curve range

CB2 receptor, sequence (P34972 whole entry): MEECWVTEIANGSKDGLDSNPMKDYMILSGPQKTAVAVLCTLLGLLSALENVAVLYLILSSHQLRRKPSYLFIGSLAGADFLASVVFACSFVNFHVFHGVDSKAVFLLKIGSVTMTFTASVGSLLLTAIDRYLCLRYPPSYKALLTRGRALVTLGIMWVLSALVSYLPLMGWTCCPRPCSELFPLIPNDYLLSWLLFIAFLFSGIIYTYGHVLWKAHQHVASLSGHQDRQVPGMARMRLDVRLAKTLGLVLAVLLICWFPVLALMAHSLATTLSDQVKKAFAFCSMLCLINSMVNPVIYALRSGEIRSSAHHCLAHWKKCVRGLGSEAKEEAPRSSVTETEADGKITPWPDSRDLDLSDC
CB1 receptor, sequence (P21554 whole entry): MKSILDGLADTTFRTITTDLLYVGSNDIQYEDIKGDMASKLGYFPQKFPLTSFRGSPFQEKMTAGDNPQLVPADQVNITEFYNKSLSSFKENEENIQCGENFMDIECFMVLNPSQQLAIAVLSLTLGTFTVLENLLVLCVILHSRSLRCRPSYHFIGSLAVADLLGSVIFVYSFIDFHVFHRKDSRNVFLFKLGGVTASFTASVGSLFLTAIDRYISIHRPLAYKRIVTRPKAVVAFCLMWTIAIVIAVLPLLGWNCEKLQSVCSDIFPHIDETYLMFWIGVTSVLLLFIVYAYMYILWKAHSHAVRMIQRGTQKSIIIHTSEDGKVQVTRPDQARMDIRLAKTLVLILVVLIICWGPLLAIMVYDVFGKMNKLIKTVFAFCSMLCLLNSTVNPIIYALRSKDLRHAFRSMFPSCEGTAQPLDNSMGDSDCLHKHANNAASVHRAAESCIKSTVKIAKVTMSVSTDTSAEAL

Row | SMILES | inhibition at 0.05 µM (CB2 receptor) [%] | inhibition at 0.5 µM (CB1 receptor) [%] | Ki (CB2 receptor) [nM] | Ki (CB1 receptor) [nM] | Fold Selectivity (CB1/CB2) (CB2 receptor; Table 3, ratio of Ki CB1/CB2) | further results
1 | CCCCCCC(C)(C)c1cc(O)c2c(c1)OC(C)(C)[C@@H]1CC=C(C(N)=O)C[C@@H]21 [Compound 4, (6aR,10aR)-1-Hydroxy-6,6-dimethyl-3-(2-methyloctan-2-yl)-6a,7,10,10a-tetrahydro-6H-benzo[c]chromene-9-carboxamide] | 57 | 70 |  |  |  | 
2 | CCCCCCC(C)(C)c1cc(OC)c2c(c1)OC(C)(C)[C@@H]1CC=C(C(=O)NCCO)C[C@@H]21 [Compound 7, (6aR,10aR)-N-(2-Hydroxyethyl)-1-methoxy-6,6-dimethyl-3-(2-methyloctan-2-yl)-6a,7,10,10a-tetrahydro-6H-benzo[c]chromene-9-carboxamide] | 11 | 21 |  |  |  | 
3 | CCCCCCCC(C)(C)c1cc(O)c2c(c1)OC(C)(C)[C@@H]1CC=C(C(=O)O)C[C@@H]21 [Compound 9, (6aR,10aR)-1-Hydroxy-6,6-dimethyl-3-(2-methylnonan-2-yl)-6a,7,10,10a-tetrahydro-6H-benzo[c]chromene-9-carboxylic acid] | 18 | -8 |  |  |  | 
4 | CCCCCCC(C)(C)c1cc(O)c2c(c1)OC(C)(C)[C@@H]1CC=C(C(=O)Oc3ccc(C(N)=S)cc3)C[C@@H]21 [Compound 10, 4-Carbamothioylphenyl (6aR,10aR)-1-hydroxy-6,6-dimethyl-3-(2-methyloctan-2-yl)-6a,7,10,10a-tetrahydro-6H-benzo[c]chromene-9-carboxylate] | 11 | 7 |  |  |  | 
5 | CCCCCCC(C)(C)c1cc(O)c2c(c1)OC(C)(C)[C@@H]1CC=C(C(=O)N[C@H]3CC[C@H](O)CC3)C[C@@H]21 [Compound 17, (6aR,10aR)-1-Hydroxy-N-(trans-4-hydroxycyclohexyl)-6,6-dimethyl-3-(2-methyloctan-2-yl)-6a,7,10,10a-tetrahydro-6H-benzo[c]chromene-9-carboxamide] | 8 | 23 |  |  |  | 
6 | CCCCCCC(C)(C)c1cc(O)c2c(c1)OC(C)(C)[C@@H]1CC=C(C(=O)N[C@H]3CC[C@@H](O)CC3)C[C@@H]21 [Compound 18, (6aR,10aR)-1-Hydroxy-N-(cis-4-hydroxycyclohexyl)-6,6-dimethyl-3-(2-methyloctan-2-yl)-6a,7,10,10a-tetrahydro-6H-benzo[c]chromene-9-carboxamide] | 26 | 5 |  |  |  | 
7 | CCCCCCC(C)(C)c1cc(OC(C)=O)c2c(c1)OC(C)(C)[C@@H]1CC=C(C#N)C[C@@H]21 [Compound 19, (6aR,10aR)-9-Cyano-6,6-dimethyl-3-(2-methyloctan-2-yl)-6a,7,10,10a-tetrahydro-6H-benzo[c]chromen-1-yl acetate] | 115 | 111 | 1.9 | 6.8 |  | Fold Selectivity (CB1/CB2) (CB2 receptor; Table 2, ratio of Ki CB1/CB2): 4
8 | CCCCCCC(C)(C)c1cc(O)c2c(c1)OC(C)(C)[C@@H]1CC=C(C(=O)NC34CC5CC(CC(C5)C3)C4)C[C@@H]21 [Compound 42, (6aR,10aR)-N-(adamantan-1-yl)-1-hydroxy-6,6-dimethyl-3-(2-methyloctan-2-yl)-6a,7,10,10a-tetrahydro-6H-benzo[c]chromene-9-carboxamide] |  |  | 175 | 59.5 | 0.3 | 
9 | CCCCCCC(C)(C)c1cc(O)c2c(c1)OC(C)(C)[C@@H]1CC=C(C(=O)NC34CC5CC(CC(O)(C5)C3)C4)C[C@@H]21 [Compound 43, (6aR,10aR)-1-hydroxy-N-(3-hydroxyadamantan-1-yl)-6,6-dimethyl-3-(2-methyloctan-2-yl)-6a,7,10,10a-tetrahydro-6H-benzo[c]chromene-9-carboxamide] |  |  | 75.6 | 891 | 11.8 | 
10 | CCCCCCC(C)(C)c1cc(O)c2c(c1)OC(C)(C)[C@@H]1CC=C(C(=O)N[C@@H](C)CCO)C[C@@H]21 [Compound 98, (6aR,10aR)-1-hydroxy-N—((S)-4-hydroxybutan-2-yl)-6,6-dimethyl-3-(2-methyloctan-2-yl)-6a,7,10,10a-tetrahydro-6H-benzo[c]chromene-9-carboxamide] |  |  | 10 | 320 | 32.0 | 
11 | CCCC(C)(C)c1cc(O)c2c(c1)OC(C)(C)[C@@H]1CC=C(C(=O)NC(C)(C)C(F)(F)F)C[C@@H]21 [Compound 101] |  |  | 84 | > 5000 | >60 | 
12 | CCCCCCC(C)(C)c1cc(O)c2c(c1)OC(C)(C)[C@@H]1CC=C(C(=O)NC#N)C[C@@H]21 [Compound 106, (6aR,10aR)-N-cyano-1-hydroxy-6,6-dimethyl-3-(2-methyloctan-2-yl)-6a,7,10,10a-tetrahydro-6H-benzo[c]chromene-9-carboxamide] |  |  | 810 | 803 | 1.0 | 
13 | CC(C)(CCCCCC(=O)O)c1cc(O)c2c(c1)OC(C)(C)[C@@H]1CC=C(C(=O)O)C[C@@H]21 [Compound 111, (6aR,10aR)-3-(7-carboxy-2-methylheptan-2-yl)-1-hydroxy-6,6-dimethyl-6a,7,10,10a-tetrahydro-6H-benzo[c]chromene-9-carboxylic acid] |  |  | > 3000 | > 3000 |  | 
14 | CCCCCCC(C)(C)c1c(Cl)c(O)c2c(c1Cl)OC(C)(C)[C@@H]1CC=C(C(=O)O)C[C@@H]21 [Compound 113, (6aR,10aR)-2,4-dichloro-1-hydroxy-6,6-dimethyl-3-(2-methyloctan-2-yl)-6a,7,10,10a-tetrahydro-6H-benzo[c]chromene-9-carboxylic acid] |  |  | > 3000 | > 3000 |  | 
15 | C[C@@H]1C[C@H]2[C@@H]3CCC4=CC(=O)C=C[C@]4(C)[C@@]3(F)[C@@H](O)C[C@]2(C)[C@@]1(O)C(=O)CO [DEX, dexamethasone, reference compound] |  |  |  |  |  | IL17A (LPS-induced PBMCs): −1.5 fold change; IL-1β (LPS-induced PBMCs): −3.8 fold change; IL-4 (LPS-induced PBMCs): −1.5 fold change; IL-6 (LPS-induced PBMCs): −3.9 fold change; IL-8 (LPS-induced PBMCs): −1.0 fold change; IL-10 (LPS-induced PBMCs): −2.0 fold change; MCP-1 (LPS-induced PBMCs): −1.7 fold change; TNFα (LPS-induced PBMCs): −6.0 fold change; IL-12 (p70) (LPS-induced PBMCs; [1]): −4.5 fold change; L-31 (LPS-induced PBMCs; [1]): −1.6 fold change
